Source: US12161641B2, “Treatments and prevention of opioid neonatal abstinence syndrome” (Ohio State Innovation Foundation, priority 2016, dated 2024)

How the values were obtained:
[1] = adult mice; 10 minutes after injection; cited from earlier work
[2] = Drug levels in plasma, brain and liver during postnatal development; conditions: for Plasma levels: 45 minutes after single injection; for Brain / Liver / Plasma: single injection
Procedure: Drugs were dissolved in saline at concentrations between 10 and 20 mg/ml, and all dilutions were made in saline. Morphine was purchased from the Ohio State Medical Center pharmacy as a 15 mg/ml solution in saline. Animals were injected subcutaneously in the region around the right hind-quarters. […] After injection and variable survival times adult and pregnant mice were euthanized by cervical dislocation, and brain, liver and plasma were collected, quickly frozen on dry-ice and stored at −70° C. until processing After euthanizing the dam, embryos were collected into a large (150×15 mm) petri dish and kept on ice while maternal tissues were processed. All embryonic tissues were then dissected and collected in a cold room at 4° C. in order to facilitate and preserve tissue integrity during dissection, then stored at −70° C. […] Samples were later thawed, processed and analyzed via liquid chromatography-tandem mass spectrometry (LC-MS/MS) to quantify levels of drug. Detailed methods for tissue processing and LC-MS/MS analysis are located in the supplemental information.

[3] = Time-course of drug levels in adult and embryonic mouse plasma, brain and liver after a single subcutaneous injection (LC-MS/MS); conditions: for 6β-naltrexol level, Embryo Brain / 6β-naltrexol level, Embryo Liver: dam 10 mg/kg subcutaneously
[4] = Cumulative injections of 6β-naltrexol: tissue levels, 1 versus 4 injections; format: in vivo, mice
Procedure: While 6β-naltrexol is relatively excluded from adult brain, it might accumulate slowly upon multiple dosing because of slow exit from the brain. Therefore, experiments were conducted to determine whether 6β-naltrexol accumulates in tissues over time after chronic delivery, and especially through retention in adult brain. After 4 injections of 6β-naltrexol over a 24 hr period (every 6 hrs), 6β-naltrexol levels were measured in fetal and maternal tissues 4 hrs after the last dose, and accumulation assessed in comparison to a single injection with a 4 hr survival. […] However, this was not significant (p>0.2). Also, 6β-naltrexol trended towards greater accumulation in liver than brain (p=0.084 for comparison of adult liver vs adult brain after 4 injections). Likewise, 6β-naltrexol trended towards greater accumulation in embryos than adults (p=0.063 for comparison of fetal vs adult brain after 4 injections).

[5] = 20 min survival, 10 mg/kg subcutaneously
[6] = 45 min survival, 10 mg/kg subcutaneously
[7] = 2 hrs survival, 10 mg/kg subcutaneously
[8] = 4 hrs survival, 10 mg/kg subcutaneously
[9] = non-compartmental, 0 to 240 min, 10 mg/kg subcutaneously

Oc1ccc2c3c1O[C@H]1[C@H](O)CC[C@@]4(O)[C@@H](C2)N(CC2CC2)CC[C@]314 [6β-naltrexol]
brain levels lower than plasma levels [1]: ~10 fold | Plasma levels ([2]; PD7): 3660+350 ng/ml | Brain:Plasma Kp ratio ([2]; PD7, survival time 45 min): 0.86 | Liver:Plasma Kp ratio ([2]; PD7, survival time 45 min): 4.3 | Brain ([2]; PD7, survival time 45 min): 3030 ± 340 ng/g | Liver ([2]; PD7, survival time 45 min): 15220 ± 1750 ng/g | Plasma ([2]; PD7, survival time 45 min): 3513 ng/mL | Brain:Plasma Kp ratio ([2]; PD14, survival time 45 min): 2 | Liver:Plasma Kp ratio ([2]; PD14, survival time 45 min): 3.6 | Brain ([2]; PD14, survival time 45 min): 2860 ± 800 ng/g | Liver ([2]; PD14, survival time 45 min): 5050 ± 1260 ng/g | Plasma ([2]; PD14, survival time 45 min): 1410 ± 370 ng/mL | Brain:Plasma Kp ratio ([2]; PD20, survival time 20 min): 0.33 | Liver:Plasma Kp ratio ([2]; PD20, survival time 20 min): 1.7 | Brain ([2]; PD20, survival time 20 min): 350 ± 20 ng/g | Liver ([2]; PD20, survival time 20 min): 1830 ± 70 ng/g | Plasma ([2]; PD20, survival time 20 min): 1070 ± 100 ng/mL | brain:plasma KP ratios ([2]; PD20 and older): 0.22-0.35 | Plasma levels ([2]; PD32): 170+30 ng/ml | Brain:Plasma Kp ratio ([2]; PD32, survival time 20 min): 0.22 | Liver:Plasma Kp ratio ([2]; PD32, survival time 20 min): 1.3 | Brain ([2]; PD32, survival time 20 min): 260 ± 80 ng/g | Liver ([2]; PD32, survival time 20 min): 1510 ± 640 ng/g | Plasma ([2]; PD32, survival time 20 min): 1160 ± 730 ng/mL | Brain:Plasma Kp ratio ([2]; PD50, survival time 45 min): 0.35 | Liver:Plasma Kp ratio ([2]; PD50, survival time 45 min): 1.9 | Brain ([2]; PD50, survival time 45 min): 150 ± 10 ng/g | Liver ([2]; PD50, survival time 45 min): 820 ± 80 ng/g | Plasma ([2]; PD50, survival time 45 min): 430 ± 40 ng/mL | Plasma levels ([2]; adults): 930+220 ng/ml | liver:plasma KP ratios ([2]; all ages): 1.3-4.2 | fetal brain KP ratio ([3]; 20 min after injection): not significantly different from unity | adult brain KP ratio (brain:plasma) ([3]; 20 min survival): 0.13 | fetal brain:maternal plasma KP ratio ([3]; 45 min after drug injection): 2.7 | adult brain KP ratio (brain:plasma) ([3]; 45 minutes survival): 0.34 | fetal brain:maternal plasma KP ratio ([3]; 120 min after injection): 15.7 | brain KP ratio based on AUC's (adult) ([3]; AUC's integrated over 4 hrs): 0.58 | KP ratio based on AUC's, adult liver ([3]; AUC-based): 2.6 | KP ratio based on AUC's, fetal liver ([3]; AUC-based): 4.3 | fetal brain KP ratio based on non-compartmental AUC's ([3]; AUC-based): 3.6 | 6β-naltrexol level, Adult Brain [3, 5]: 260 ng/g | 6β-naltrexol level, Adult Brain [3, 6]: 310 ng/g | 6β-naltrexol level, Adult Brain [3, 7]: 230 ng/g | 6β-naltrexol level, Adult Brain [3, 8]: 110 ng/g | 6β-naltrexol level, Adult Liver [3, 5]: 3570 ng/g | 6β-naltrexol level, Adult Liver [3, 6]: 3200 ng/g | 6β-naltrexol level, Adult Liver [3, 7]: 530 ng/g | 6β-naltrexol level, Adult Liver [3, 8]: 280 ng/g | embryonic brain levels higher than in adult brain, at peak ([3]; at peak, 10 mg/kg subcutaneously): ~9 fold | 6β-naltrexol level, Embryo Brain ([3]; 20 min survival): 1350 ng/g | 6β-naltrexol level, Embryo Brain ([3]; 45 min survival): 2780 ng/g | 6β-naltrexol level, Embryo Brain ([3]; 2 hrs survival): 1370 ng/g | 6β-naltrexol level, Embryo Brain ([3]; 4 hrs survival): 210 ng/g | 6β-naltrexol level, Embryo Liver ([3]; 20 min survival): 2970 ng/g | 6β-naltrexol level, Embryo Liver ([3]; 45 min survival): 4400 ng/g | 6β-naltrexol level, Embryo Liver ([3]; 2 hrs survival): 1040 ng/g | 6β-naltrexol level, Embryo Liver ([3]; 4 hrs survival): 250 ng/g | AUC for embryonic brain greater than that of adult brain ([3]; non-compartmental, 0 to 240 min): 6 fold | area under the curve (AUC), (maternal) plasma [3, 9]: 83+6×10^3 ng/ml-min | area under the curve (AUC), adult brain [3, 9]: 49+2×10^3 ng/ml-min | area under the curve (AUC), adult liver [3, 9]: 274+36×10^3 ng/ml-min | area under the curve (AUC), embryonic (fetal) brain [3, 9]: 302+60×10^3 ng/ml-min | area under the curve (AUC), embryonic liver [3, 9]: 373+84 | 6β-naltrexol level, Plasma [3, 5]: 2060 ng/g | 6β-naltrexol level, Plasma [3, 6]: 930 ng/g | 6β-naltrexol level, Plasma [3, 7]: 90 ng/g | 6β-naltrexol level, Plasma [3, 8]: 40 ng/g | increase of 6β-naltrexol after cumulative injections, average for all tissues ([4]; 4 injections over 24 hr vs single injection, 4 hr survival, not significant (p>0.2)): ~1.5 fold | 6β-naltrexol level, Adult Brain, 1 injection ([4]; adult brain, 1 injection of 10 mg/kg, 4 hr survival): 110 | 6β-naltrexol level, Adult Brain, 4 injections in 24 hrs ([4]; adult brain, 4 injections of 10 mg/kg in 24 hrs, 4 hr survival after last dose): 160 | 6β-naltrexol level, Adult Liver, 1 injection ([4]; adult liver, 1 injection of 10 mg/kg, 4 hr survival): 280 | 6β-naltrexol level, Adult Liver, 4 injections in 24 hrs ([4]; adult liver, 4 injections of 10 mg/kg in 24 hrs, 4 hr survival after last dose): 360 | 6β-naltrexol level, Embryo Brain, 1 injection ([4]; embryo brain, 1 injection of 10 mg/kg, 4 hr survival): 210 | 6β-naltrexol level, Embryo Brain, 4 injections in 24 hrs ([4]; embryo brain, 4 injections of 10 mg/kg in 24 hrs, 4 hr survival after last dose): 290 | 6β-naltrexol level, Embryo Liver, 1 injection ([4]; embryo liver, 1 injection of 10 mg/kg, 4 hr survival): 250 | 6β-naltrexol level, Embryo Liver, 4 injections in 24 hrs ([4]; embryo liver, 4 injections of 10 mg/kg in 24 hrs, 4 hr survival after last dose): 500 | 6β-naltrexol level, Plasma, 1 injection ([4]; plasma, 1 injection of 10 mg/kg, 4 hr survival): 40 | 6β-naltrexol level, Plasma, 4 injections in 24 hrs ([4]; plasma, 4 injections of 10 mg/kg in 24 hrs, 4 hr survival after last dose): 60
